Patent US20150164916A1, “ROFLUMILAST COMPOSITIONS FOR THE TREATMENT OF COPD” (Forest Laboratories Holdings Ltd., priority 2012, published 2015)

What was measured:
Type in all cases: cell-based, human
GM-CSF release = assay: LPS-induced GM-CSF release in isolated peripheral blood neutrophils (LUMINEX); settings: LPS (1 μg/ml), 6 h
Description: Neutrophils and monocytes were isolated from peripheral venous blood by standard laboratory procedures. In brief, peripheral venous blood was mixed with dextran 500 at 3% (in 0.9% saline) in a proportion of 2:1. This mixture was incubated at room temperature for 30 min until erythrocytes were sedimented. […] The two phases generated were centrifuged at 150 g, 4° C. for 30 min. Thus, the interface was collected to isolate monocytes, and the pellet obtained (which is consisted a mixture of neutrophils and low proportion of residual erythrocytes and traces of eosinophils and basophils) was resuspended in an erythrocyte lysis buffer (Biolegend, UK) for 5 min in ice. Cell suspension was washed two times with phosphate buffer (PBS).
(§1) Peripheral neutrophil cell suspension was adjusted to 500×10^3 cells per well in 24-well plates and incubated in RPMI culture medium for 1 h into the incubator at 37° C., 5% CO2. […] Both the stimulus and drug were remained together for 6 h. Supernatants were collected and centrifuged at 120 g for 5 min, and the free-cell supernatant was used to measure IL-8, MMP-9, IL-1β, GM-CSF and CCL-5.
(§2) IL-8 was determined by using commercially available enzyme-linked immunosorbent assay kit for IL-8 (R&D Systems, UK) according to the manufacturer's protocol. MMP-9, IL-1β, GM-CSF and CCL-5 were measured by LUMINEX technology according to the manufacturer's protocol.
(§3) Data were presented as mean±SEM. IC50 values were calculated for each drug and their combinations. Statistical analysis of results was carried out by analysis of variance (ANOVA) followed by Bonferroni test, by Student's t test, or by non-parametric tests as appropriate (GraphPad Software Inc, San Diego, Calif., USA). Significance was accepted when P<0.05. For clinical correlations of lung function and gene expression from neutrophils the non-parametric Spearman correlation analysis was carried out.

IL-1β release = assay: LPS-induced IL-1β release in isolated peripheral blood neutrophils (LUMINEX); settings: LPS (1 μg/ml), 6 h
Description: Neutrophils and monocytes were isolated from peripheral venous blood by standard laboratory procedures. In brief, peripheral venous blood was mixed with dextran 500 at 3% (in 0.9% saline) in a proportion of 2:1. This mixture was incubated at room temperature for 30 min until erythrocytes were sedimented. The upper phase was carefully collected and added on Ficoll-Paque Histopaque 1077 (Amershan Pharmacia Biotech, Barcelona, Spain) density gradient in a proportion of 3:1. The two phases generated were centrifuged at 150 g, 4° C. for 30 min. Thus, the interface was collected to isolate monocytes, and the pellet obtained (which is consisted a mixture of neutrophils and low proportion of residual erythrocytes and traces of eosinophils and basophils) was resuspended in an erythrocyte lysis buffer (Biolegend, UK) for 5 min in ice. Cell suspension was washed two times with phosphate buffer (PBS).
as §1, §2, §3

p-ERK1/2 = assay: Western blot of ERK1/2 phosphorylation in CSE-stimulated neutrophils from COPD patients; settings: RNO 1 nM and 1 μM, DEX 1 μM, RNO 1 nM plus DEX 1 μM, NAC 1 mM for 1 h, then CSE 5% 20 min
Description: Neutrophils and monocytes were isolated from peripheral venous blood by standard laboratory procedures. In brief, peripheral venous blood was mixed with dextran 500 at 3% (in 0.9% saline) in a proportion of 2:1. This mixture was incubated at room temperature for 30 min until erythrocytes were sedimented. The upper phase was carefully collected and added on Ficoll-Paque Histopaque 1077 (Amershan Pharmacia Biotech, Barcelona, Spain) density gradient in a proportion of 3:1. The two phases generated were centrifuged at 150 g, 4° C. for 30 min. […]
CSE was prepared as previously outlined (Milara et al.; Ortiz et al.). […] The quality of the prepared CSE solution was assessed based on the absorbance at 320 nm, which is the specific absorption wavelength of peroxynitrite. Stock solutions with an absorbance value of 3.0±0.1 were used. […]
Western blot analysis was used to detect changes in p-ERK1/2 (42-44 kD). […] Cells were then centrifuged and the total protein was extracted using a lysis buffer consisting of a complete inhibitor cocktail plus 1 mM ethylenediaminetetraacectic acid (Roche Diagnostics Ltd, West Sussex, UK) with 20 mM Tris base, 0.9% NaCl, 0.1% Triton X-100, 1 mM dithiothreitol and 1 μg mL^−1 pepstatin A. The Bio-Rad assay (Bio-Rad Laboratories Ltd., Herts, UK) was used (following manufacturer's instructions) to quantify the level of protein in each sample to ensure equal protein loading. […]

-log IC50, inhibition of GM-CSF release (GM-CSF release; neutrophils from COPD patients): 8.10 ± 0.22 | -log IC50, inhibition of IL-1β release (IL-1β release; neutrophils from COPD patients): 7.82 ± 0.21
Structure (SMILES): O=C(Nc1c(Cl)c[n+]([O-])cc1Cl)c1ccc(OC(F)F)c(OCC2CC2)c1 [RNO, roflumilast N-oxide]
Maximal % Inhibition of GM-CSF release (GM-CSF release; neutrophils from COPD patients): 86.6 ± 8.04% | -log IC50, inhibition of GM-CSF release (GM-CSF release; neutrophils from HEALTHY): 8.25 ± 0.21 | Maximal % Inhibition of GM-CSF release (GM-CSF release; neutrophils from HEALTHY): 78.87 ± 6.57% | Maximal % Inhibition of IL-1β release (IL-1β release; neutrophils from COPD patients): 66.69 ± 6.86% | -log IC50, inhibition of IL-1β release (IL-1β release; neutrophils from HEALTHY): 7.73 ± 0.22 | Maximal % Inhibition of IL-1β release (IL-1β release; neutrophils from HEALTHY): 67.08 ± 6.63% | effect on CSE-induced phosphorylation of ERK1/2 (p-ERK1/2): effectively inhibited
